Test results reported in patent US3992533A, “O-ethyl-S-N-propyl-O-(2-chloro-4-bromophenyl)-thiophosphate” (priority 1971, dated 1976).
Like-named read-outs stand apart in the source and are kept apart here.

What was measured:
[1] = tested on: third instar larvae of Heliothis virescens; assay: Insecticidal test on sprayed potted cotton and tobacco plants, initial and residual effect; assay type: in vivo
Protocol: Potted cotton and tobacco plants respectively were sprayed with 125 ppm of active ingredient in the form of an aqueous emulsion. After the coating had dried, the treated plants were infested with third instar larvae of Heliothis virescens. The tests were running under greenhouse conditions at 24° C and 60% relative humitidy. Assessments to evaluate the initial effect of the immediate acitivity of the active ingredient were carried out 4, 24 and 48 hours after the infestation of the plants with the pests. Assessments to evaluate the […] of the activity over a prolonged period of the active ingredient were carried out as follows: the coated test plants were infested with the test individuals 2 and 8 days respectively after the application of the active ingredient. Each test was checked after 4, 24 and 48 hours. Test compounds

[2] = Acute oral toxicity in rat; conditions: in vivo, per os
[3] = tested on: Anthrenus vorax; assay: Talcum dust on filter paper, dosage for 100% control within 24 hours; assay type: in vivo; conditions: 5% talcum dust on filter paper
Protocol: (§1) A dust on a base of talcum and containing 5% active ingredient was applied to filter paper in concentrations of 100, 50, 25, 12.5 6.2 and 3.1 mg of active substance per m^ 2. Onto each of the treated substrates were applied 5 Necrobia rufipes, Rhyzoperta dominica, Anthrenus vorax and Tribolium confusum individuals respectively. Evaluation took place 24 hours later. Test compounds were same as set forth in Example 2.

[4] = tested on: Necrobia rufipes; assay: as above; assay type: in vivo; conditions: 5% talcum dust on filter paper
Protocol: as §1

[5] = tested on: Rhyzoperta dominica; assay: as above; assay type: in vivo; conditions: 5% talcum dust on filter paper
Protocol: as §1

[6] = tested on: Tribolium confusum; assay: as above; assay type: in vivo; conditions: 5% talcum dust on filter paper
Protocol: as §1

[7] = tested on: Tetranychus urticae; assay: Acaricidal action on Phaseolus vulgaris; assay type: in vivo; conditions: larvae, adults and eggs evaluated after 7 days; greenhouse 25° C
Protocol: The number of living and dead larvae, adults and eggs were evaluated after 7 days under a stereoscopic microscope and the result expressed in percentages. During the "interim", the treated plants were kept in greenhouse compartments at 25° C.

[8] = tested on: cotton pests; assay: Comparison of activity with closest known compounds; assay type: in vivo; conditions: on at least the same toxicity level; especially initial effect towards cotton pests
[9] = 125 ppm aqueous emulsion, initial effect, assessment 4 h after infestation, 24° C, 60% relative humidity, read-out: % mortality, initial, 4 hours
[10] = 125 ppm, infested 2 days after application, assessment at 24 h, read-out: % mortality, residual 2d, 24 hours
[11] = 125 ppm, infested 2 days after application, assessment at 48 h, read-out: % mortality, residual 2d, 48 hours
[12] = 125 ppm, infested 8 days after application, assessment at 4 h, read-out: % mortality, residual 8d, 4 hours
[13] = 125 ppm, infested 8 days after application, assessment at 24 h, read-out: % mortality, residual 8d, 24 hours
[14] = 125 ppm, infested 8 days after application, assessment at 48 h, read-out: % mortality, residual 8d, 48 hours
[15] = 125 ppm, initial effect, assessment 24 h after infestation, read-out: % mortality, initial, 24 hours
[16] = 125 ppm, initial effect, assessment 48 h after infestation, read-out: % mortality, initial, 48 hours
[17] = 4 h, read-out: % mortality, residual 2d, 4 hours

With `CCCSP(=O)(OCC)Oc1ccc(Br)cc1Br` (centres unmarked) [III, O-ethyl-S-n-propyl-O-(2,4-dibromophenyl)-thiophosphoric acid ester] the mortality at 125 ppm [1, 9] was 75%, the mortality at 125 ppm [1, 10] was 100% and the mortality at 125 ppm [1, 11] was 100%. The mortality at 125 ppm [1, 12] was 0%, the mortality at 125 ppm [1, 13] was 5% and the mortality at 125 ppm [1, 14] was 55%. It also gave a mortality at 125 ppm [1, 15] of 100%, a mortality at 125 ppm [1, 16] of 100% and a mortality at 125 ppm [1, 17] of 30%. For the same compound, the LD50 [2] was 300 mg/kg, the “Dosage needed which provides a 100% control within 24 hours” value [3] was 100 mg a.i./m^2 and the “Dosage needed which provides a 100% control within 24 hours” value [4] was 6.2 mg a.i./m^2. The “Dosage needed which provides a 100% control within 24 hours” value [5] was 100 mg a.i./m^2 and the “Dosage needed which provides a 100% control within 24 hours” value [6] was over 100 mg a.i./m^2.
With `CCCSP(=O)(OCC)Oc1ccc(Br)cc1Cl` (centres unmarked) [I, O-ethyl-S-N-propyl-O-(2-chloro-4-bromophenyl)-thiophosphate] the mortality at 125 ppm [1, 9] was 100%, the mortality at 125 ppm ([1]; 125 ppm, infested 2 days after application, assessment at 4 h, read-out: % mortality, residual 2d, 4 hours) was 100% and the mortality at 125 ppm [1, 10] was 100%. For the same compound, the mortality at 125 ppm [1, 11] was 100%, the mortality at 125 ppm [1, 12] was 50% and the mortality at 125 ppm [1, 13] was 100%. For the same compound, the mortality at 125 ppm [1, 14] was 100%, the mortality at 125 ppm [1, 15] was 100% and the mortality at 125 ppm [1, 16] was 100%. The LD50 [2] was 400 to 900 mg/kg, the acaricidal activity [7] was “good activity” and the “Dosage needed which provides a 100% control within 24 hours” value [3] was 25 mg a.i./m^2. For the same compound, the “Dosage needed which provides a 100% control within 24 hours” value [4] was 3.1 mg a.i./m^2, the “Dosage needed which provides a 100% control within 24 hours” value [5] was 25 mg a.i./m^2 and the “Dosage needed which provides a 100% control within 24 hours” value [6] was 50 mg a.i./m^2. The “activities versus the closest known compounds” value [8] was “surprisingly superior activities”.
`CCCSP(=O)(OCC)Oc1ccc(Cl)cc1Cl` (centres unmarked) [II, O-ethyl-S-n-propyl-O-(2,4-dichlorophenyl)-thiophosphoric acid ester] showed a mortality at 125 ppm [1, 9] of 80%, a mortality at 125 ppm [1, 10] of 100% and a mortality at 125 ppm [1, 11] of 100%. The mortality at 125 ppm [1, 12] was 30%, the mortality at 125 ppm [1, 13] was 50% and the mortality at 125 ppm [1, 14] was 100%. For the same compound, the mortality at 125 ppm [1, 15] was 90%, the mortality at 125 ppm [1, 16] was 100% and the mortality at 125 ppm [1, 17] was 50%. For the same compound, the LD50 [2] was 400 mg/kg, the “Dosage needed which provides a 100% control within 24 hours” value [3] was 50 mg a.i./m^2 and the “Dosage needed which provides a 100% control within 24 hours” value [4] was 6.2 mg a.i./m^2. The “Dosage needed which provides a 100% control within 24 hours” value [5] was 50 mg a.i./m^2 and the “Dosage needed which provides a 100% control within 24 hours” value [6] was 100 mg a.i./m^2.
